Assays:
Bobwhite quail [1] = experiment: Ecotoxicity: birds, reproduction; assay type: in vivo
From the text: (§1) The ecotoxicity of flumetylsulforim was investigated in numerous studies in accordance with the strict requirements for the approval of active substances in the EU.

Eisenia fetida = experiment: Ecotoxicity: earthworms, long-term; assay type: in vivo
From the text: as §1

Ecotoxicity: fish, acute = conditions: in vivo, Rainbow trout
From the text: as §1

Ryegrass [2] = experiment: Non-target terrestrial plants, vegetative vigour; assay type: in vivo
From the text: as §1

Sugar beet [3] = experiment: Non-target terrestrial plants, vegetative vigour; assay type: in vivo
From the text: as §1

Common oat [4] = experiment: Non-target terrestrial plants, vegetative vigour; assay type: in vivo
From the text: as §1

Cucumber [5] = experiment: Non-target terrestrial plants, vegetative vigour; assay type: in vivo
From the text: as §1

Onion [6] = experiment: Non-target terrestrial plants, vegetative vigour; assay type: in vivo
From the text: as §1

Carrot [7] = experiment: Non-target terrestrial plants, vegetative vigour; assay type: in vivo
From the text: as §1

Honeybee [8] = experiment: Ecotoxicity: honeybee, acute contact; assay type: in vivo
From the text: as §1

Green alga = experiment: Ecotoxicity: algae, long-term; assay type: in vivo; conditions: wheats and barley at 2 × 100 g/ha
From the text: as §1

[9] = Ecotoxicity: algae, long-term; assay type: in vivo; conditions: in vivo, Green alga
From the text: as §1

Daphnia magna [10] = experiment: Ecotoxicity: aquatic invertebrates, acute; assay type: in vivo; conditions: wheats and barley at 2 × 100 g/ha
From the text: as §1

[11] = Ecotoxicity: aquatic invertebrates, acute; assay type: in vivo; conditions: in vivo, Daphnia magna
From the text: as §1

Rainbow trout = experiment: Ecotoxicity: fish, long-term; assay type: in vivo
From the text: as §1

Phytophtora infestans = assay type: in vivo; conditions: potato; 150 g ai/ha vs CUPRIZOL S 330 g ai/ha
Ryegrass [12] = experiment: Non-target terrestrial plants, seedling emergence; assay type: in vivo
From the text: as §1

Soybean = experiment: Non-target terrestrial plants, seedling emergence; assay type: in vivo
From the text: as §1

Oil seed rape = experiment: Non-target terrestrial plants, seedling emergence; assay type: in vivo
From the text: as §1

Sugar beet [13] = experiment: Non-target terrestrial plants, seedling emergence; assay type: in vivo
From the text: as §1

Maize = experiment: Non-target terrestrial plants, seedling emergence; assay type: in vivo
From the text: as §1

Common oat [14] = experiment: Non-target terrestrial plants, seedling emergence; assay type: in vivo
From the text: as §1

Sunflower = experiment: Non-target terrestrial plants, seedling emergence; assay type: in vivo
From the text: as §1

Cucumber [15] = experiment: Non-target terrestrial plants, seedling emergence; assay type: in vivo
From the text: as §1

Onion [16] = experiment: Non-target terrestrial plants, seedling emergence; assay type: in vivo
From the text: as §1

Carrot [17] = experiment: Non-target terrestrial plants, seedling emergence; assay type: in vivo
From the text: as §1

Honeybee [18] = experiment: Ecotoxicity: honeybee, acute oral; assay type: in vivo
From the text: as §1

Daphnia magna [19] = experiment: Ecotoxicity: aquatic invertebrates, long-term; assay type: in vivo
From the text: as §1

Bobwhite quail [20] = experiment: Ecotoxicity: birds, acute; assay type: in vivo
From the text: as §1

Rabbit = experiment: Ecotoxicity: mammals, long-term; assay type: in vivo
From the text: as §1

Honeybee [21] = experiment: Ecotoxicity: honeybee, chronic oral; assay type: in vivo
From the text: as §1

Parasitoid wasp = experiment: Ecotoxicity: non-target arthropods, reproduction; assay type: in vivo
From the text: as §1

Predatory mite = experiment: Ecotoxicity: non-target arthropods, reproduction; assay type: in vivo; conditions: wheats and barley at 2 × 100 g/ha
From the text: as §1

[22] = system: Erysiphe betae (powdery mildew); experiment: Greenhouse screening test, powdery mildew in sugar beet; assay type: in vivo; conditions: starting from 100 g ai/ha, applied one day after inoculation
Description: The screening test was conducted in a greenhouse in Gerichshain, Kupferstraße 6, Germany. The test was performed from application until 28 days after treatment. The efficacy and phytotoxic symptoms of compound of formula I to the plant species sugar beet were examined with a water control under greenhouse conditions. During the whole trial period the plants were stored at 12.6° C.-24.2° C. and 41.9-78.2% relative humidity.
The inoculation of the leaves was carried out. A spore suspension was produced. Infested leaves of sugar beets from a field were put in water for some minutes to get a spore suspension. For better homogeneity Tween 20 (Polysorbat) was added to the spore solution (0.1%). Two diseases were observed on the sampled leaves, Uromyces betae and Erysiphe betae, just E. betae infested the plants in this screening trial. […]
The application was carried out once one day after inoculation in an automatic application cabin at a spray volume equivalent to 200 L/ha. During the observation period of 28 days after treatment (DAT), the plants were assessed weekly for growth stage, leaf diseases and phytotoxicity. […]

[23] = wheats and barley at 2 × 100 g/ha

Description for Corynespora cassiicola: The inoculation of Corynespora cassiicola and Colletotrichum dematium var. truncatum is done with infected leaves from the field few days after the application.
To test for fungicidal control against the two necrotrophic diseases, the soybean plants, grown in pots, are sprayed at V2 with each of the above treatments. 5 pots with 3 soybean plants each are considered, each treatment counts for 4 replicates.
Between 14 and 21 days from the inoculation the severity (%) of the infection is assessed.

Cc1ccc(S(=O)(=O)n2cc(F)c(=N)n(C)c2=O)cc1 [compound of formula I, 5-fluoro-4-imino-3-methyl-1-tosyl-3,4-dihydropyrimidin-2(1H)-one]
NOED (Bobwhite quail [1]): NOED > 67.8 mg/kg bw/d | Risk at current use pattern (Bobwhite quail [1]; [23]): Acceptable | NOEC (Eisenia fetida): NOEC = 309 mg/kg dws | Risk at current use pattern (Eisenia fetida; [23]): Acceptable | LC50 (Ecotoxicity: fish, acute): 5.41 µg/mL | ER50 (Ryegrass [2]): ER50 > 189 g/ha | Risk at current use pattern (Ryegrass [2]; [23]): Acceptable | ER50 (Sugar beet [3]): ER50 > 189 g/ha | Risk at current use pattern (Sugar beet [3]; [23]): Acceptable | ER50 (Common oat [4]): ER50 > 189 g/ha | Risk at current use pattern (Common oat [4]; [23]): Acceptable | ER50 (Cucumber [5]): ER50 > 189 g/ha | Risk at current use pattern (Cucumber [5]; [23]): Acceptable | ER50 (Onion [6]): ER50 > 189 g/ha | Risk at current use pattern (Onion [6]; [23]): Acceptable | ER50 (Carrot [7]): ER50 > 189 g/ha | Risk at current use pattern (Carrot [7]; [23]): Acceptable | LD50 (Honeybee [8]): LD50 > 50 μg/bee | Risk at current use pattern (Green alga): Acceptable | EC50 [9]: > 10 µg/mL | phytotoxicity (Corynespora cassiicola; in vivo): no significant phytotoxicity | control of Corynespora cassiicola (Corynespora cassiicola; soybean, 50-200 g ai/ha): effectively controls | Risk at current use pattern (Daphnia magna [10]): Acceptable | EC50 [11]: > 10 µg/mL | NOEC (Rainbow trout): NOEC = 0.128 mg/L | Risk at current use pattern (Rainbow trout; [23]): Acceptable | control versus reference treatment (Phytophtora infestans): significant better control than the reference treatment | ER50 (Ryegrass [12]): ER50 > 189 g/ha | Risk at current use pattern (Ryegrass [12]; [23]): Acceptable | ER50 (Soybean): ER50 > 189 g/ha | Risk at current use pattern (Soybean; [23]): Acceptable | ER50 (Oil seed rape): ER50 > 189 g/ha | Risk at current use pattern (Oil seed rape; [23]): Acceptable | ER50 (Sugar beet [13]): ER50 > 189 g/ha | Risk at current use pattern (Sugar beet [13]; [23]): Acceptable | ER50 (Maize): ER50 > 189 g/ha | Risk at current use pattern (Maize; [23]): Acceptable | ER50 (Common oat [14]): ER50 > 189 g/ha | Risk at current use pattern (Common oat [14]; [23]): Acceptable | ER50 (Sunflower): ER50 > 189 g/ha | Risk at current use pattern (Sunflower; [23]): Acceptable | ER50 (Cucumber [15]): ER50 > 189 g/ha | Risk at current use pattern (Cucumber [15]; [23]): Acceptable | ER50 (Onion [16]): ER50 > 189 g/ha | Risk at current use pattern (Onion [16]; [23]): Acceptable | ER50 (Carrot [17]): ER50 > 189 g/ha | Risk at current use pattern (Carrot [17]; [23]): Acceptable | LD50 (Honeybee [18]): LD50 > 3.727 μg/bee | NOEC (Daphnia magna [19]): NOEC = 0.32 mg/L | Risk at current use pattern (Daphnia magna [19]; [23]): Acceptable | LD50 (Bobwhite quail [20]): LD50 > 2000 mg/kg bw | NOED (Rabbit): NOED = 15 mg/kg bw/d | Risk at current use pattern (Rabbit; [23]): Acceptable | LD50 (Honeybee [21]): LD50 = 16.0 μg/bee/d | LR50 (Parasitoid wasp): LR50 > 189 g/ha | Risk at current use pattern (Parasitoid wasp; [23]): Acceptable | Risk at current use pattern (Predatory mite): Acceptable | reduction of the affected leaf area compared to the UTC [22]: > 60%

Reference: patent publication US20240172750A1, “5-Fluoro-4-Imino-3-Methyl-1-Tosyl-3,4-Dihydropyrimidin-2(1H)-One for Controlling Plant Diseases” (Adama Makhteshim Ltd., priority 2021, published 2024)
